{
  "source": "patent US4136165A",
  "about": "“Cosmetic preparations with alkoxybenzoic acid esters as inflammation inhibitors and method” (Henkel Kommanditgesellschaft auf Aktien, priority 1976, dated 1979)",
  "key": {"[1]": {"test_system": "Carrageenin edema, rat's paw", "assay": "Rat's paw test, carrageenin edema (amputation methodology)", "format": "in vivo", "conditions": "1000 mg/kg p.o. one hour before initiating the inflammation, paws weighed three hours after carrageenin", "excerpt": "The so-called amputation methodology, described by C. H. Winter in Journal of Pharmaceutical and Experimental Therapeutics, Vol. 141 (1963), page 369, was used as a further rat's paw test. In this method, the test animals are killed three hours after injecting the substance causing the inflammation, and the weights of the paws are ascertained. The product used to cause inflammation in these tests is carrageenin. The inhibiting of the development of the edema of the rats' paws by the test substance, which was administered orally one hour before initiating the inflammation,serves as an indication of the efficacy and is expressed in percentages."}, "[2]": {"test_system": "UV edema in hairless mouse", "assay": "Ultraviolet test on hairless mice (UV edema, skin fold thickness)", "format": "in vivo", "conditions": "5% in Vaseline, skin fold thickness after 30 hrs", "experimental": "However, an ultraviolet test was carried out on hairless mice which also provide information concerning the efficacy of the substances for use as agents for treating sunburn. The backs of the hairless mice were exposed to radiation by an ultraviolet lamp for thirty minutes from a distance of 60 cm, thus causing a cutaneous inflammation. […] The dosage of the test substances was the same as in the rat's paw test. The degree of formation of edema was determined by measuring the skin fold thickness after thirty hours. The degree of the percentage inhibition of the erythema is given in the following Table I and was determined by comparing the change in the skin fold thickness, caused in treated test animals by exposure to radiation, with the change in the skin fold thickness in animals which, although exposed to radiation, had not been treated."}, "[3]": {"assay": "Orientating test of toxicity", "conditions": "in vivo", "experimental": "The alkoxybenzoic acid esters, to be used in accordance with the present invention, were tested for their inflammation-inhibiting properties in the experiments described hereinafter. An orientating test of their toxicity was first carried out in order to be able to establish the test dosages for further experiments."}, "Dextran edema, rat's paw": {"test_system": "Dextran edema, rat's paw", "assay": "Edema of the rat's paw test, dextran edema", "format": "in vivo", "conditions": "1000 mg/kg p.o. thirty minutes before dextran, measured thirty minutes after dextran injection", "experimental": "The edema of the rat's paw test, as described by F. Kemper in \"Arzneimittelforschung\" 10 (1960), p. 777, was used as a test for assessing the compounds with respect to their suitability for inhibiting inflammation. In order to produce the edema, 0.1 ml of 6% dextran solution was injected to a depth of approximately 5 mm between the second and third toe of the right hind paw of the test animals. While only the dextran solution was administered to the control test animals, the various test substances were injected or administered per os to the test animals in the quantities given in Table I thirty minutes before the test animals were injected with the dextran solution. The volume of the paws was determined by means of the electrical volume measuring device described in detail by Kemper & Amelin in \"Zeitschrift fur die gesamte experimentelle Medizin\" 131 (1958), p. 407.\nThe measurements were taken thirty minutes after the dextran solution injection. For the purpose of comparison, the left untreated paw was in each case measured at the said times. The amount of the swelling in animals which had been treated with the test substance and in non-treated animals thirty minutes after the dextran injection were used to calculate the degree of the inhibiting of the edema as a percentage of the swelling which occurred in animals which had not received any test substance."}, "[4]": {"test_system": "UV erythema in guinea pig", "assay": "Ultraviolet erythema test in guinea pigs", "format": "in vivo", "conditions": "5% Tincture, mean of assessments six hours after radiation and the following morning", "experimental": "Guinea pigs were subjected to the ultraviolet erythema test in a further experiment. For this purpose, the hair was removed from the backs of the test animals by shearing and treatment with a depilatory cream. The test animals were then exposed to radiation for eight minutes, and the marked test areas were then treated with the test solutions or salves. A second application was effected after thirty minutes, and a third and the following treatments were effected at intervals of sixty minutes. Six hours after having been exposed to radiation, the animals were washed, dried and visually assessed.\nAssessment was repeated the following morning and the mean value for each substance was calculated from the two assessments. The two spots exposed to radiation directly behind the ears were chosen as reference points which had been exposed to radiation and which had not been treated. The intensity of the redness of these spots was equated with 0. Disappearance of the redness at the treated places was assessed by plus points up to +4 (no spots visible), and an intensification of the redness was assessed with minus points up to -4 (formation of blisters). The total of the assessments from the two evaluations, expressed in the ratio to the number of animals times 8 as the maximum attainable value (= 100%) gives the percentage inhibiting value of the substance. The inhibiting values ascertained in this manner are given in the following table under the heading \"UR Erythema Guinea Pigs\"."}},
  "note": "Like-named read-outs stand apart in the source and are kept apart here.",
  "data": [
    {"compound": "CCCOC(=O)c1ccc(OC)cc1", "note": "[Compound A, n-Propyl Anisate]", "values": [
      {"measurement": "Rat's Paw Test Carrageenin Edema Inhibition", "setting": "[1]", "value": 12, "unit": "%"},
      {"measurement": "UV Edema in Hairless Mouse Inhibition After 30 hrs", "setting": "[2]", "value": 49, "unit": "%"},
      {"measurement": "LD50", "setting": "[3]; read-out: Orientating Toxicity", "value": "> 1000", "unit": "mg/kg"},
      {"measurement": "Rat's Paw Test Dextran Edema Inhibition", "setting": "Dextran edema, rat's paw", "value": 25, "unit": "%"},
      {"measurement": "UV Erythema in Guinea Pig Inhibition", "setting": "[4]", "value": 60, "unit": "%"}
    ]},
    {"compound": "COC(=O)c1ccc(OC)cc1", "note": "[Compound B, Methyl Anisate]", "values": [
      {"measurement": "Rat's Paw Test Carrageenin Edema Inhibition", "setting": "[1]", "value": 18, "unit": "%"},
      {"measurement": "UV Edema in Hairless Mouse Inhibition After 30 hrs", "setting": "[2]", "value": 41, "unit": "%"},
      {"measurement": "LD50", "setting": "[3]; read-out: Orientating Toxicity", "value": "> 1000", "unit": "mg/kg"},
      {"measurement": "Rat's Paw Test Dextran Edema Inhibition", "setting": "Dextran edema, rat's paw", "value": 28, "unit": "%"},
      {"measurement": "UV Erythema in Guinea Pig Inhibition", "setting": "[4]", "value": 31, "unit": "%"}
    ]},
    {"compound": "COc1ccc(C(=O)OC(C)C)cc1", "note": "[Compound C, Isopropyl Anisate]", "values": [
      {"measurement": "Rat's Paw Test Carrageenin Edema Inhibition", "setting": "[1]", "value": 9, "unit": "%"},
      {"measurement": "UV Edema in Hairless Mouse Inhibition After 30 hrs", "setting": "[2]", "value": 38, "unit": "%"},
      {"measurement": "LD50", "setting": "[3]; read-out: Orientating Toxicity", "value": "> 1000", "unit": "mg/kg"},
      {"measurement": "Rat's Paw Test Dextran Edema Inhibition", "setting": "Dextran edema, rat's paw", "value": 20, "unit": "%"},
      {"measurement": "UV Erythema in Guinea Pig Inhibition", "setting": "[4]", "value": 40, "unit": "%"}
    ]},
    {"compound": "CCCCOC(=O)c1ccc(OC)cc1", "note": "[Compound D, Butyl Anisate]", "values": [
      {"measurement": "Rat's Paw Test Carrageenin Edema Inhibition", "setting": "[1]", "value": 11, "unit": "%"},
      {"measurement": "UV Edema in Hairless Mouse Inhibition After 30 hrs", "setting": "[2]", "value": 36, "unit": "%"},
      {"measurement": "LD50", "setting": "[3]; read-out: Orientating Toxicity", "value": "> 1000", "unit": "mg/kg"},
      {"measurement": "Rat's Paw Test Dextran Edema Inhibition", "setting": "Dextran edema, rat's paw", "value": 9, "unit": "%"},
      {"measurement": "UV Erythema in Guinea Pig Inhibition", "setting": "[4]", "value": 51, "unit": "%"}
    ]},
    {"compound": "COc1ccc(C(=O)OC(C)(C)C)cc1", "note": "[Compound E, Tert.-Butyl Anisate]", "values": [
      {"measurement": "Rat's Paw Test Carrageenin Edema Inhibition", "setting": "[1]", "value": 41, "unit": "%"},
      {"measurement": "UV Edema in Hairless Mouse Inhibition After 30 hrs", "setting": "[2]", "value": 30, "unit": "%"},
      {"measurement": "LD50", "setting": "[3]; read-out: Orientating Toxicity", "value": "> 1000", "unit": "mg/kg"},
      {"measurement": "Rat's Paw Test Dextran Edema Inhibition", "setting": "Dextran edema, rat's paw", "value": 11, "unit": "%"},
      {"measurement": "UV Erythema in Guinea Pig Inhibition", "setting": "[4]", "value": 43, "unit": "%"}
    ]},
    {"compound": "COc1ccc(C(=O)OCC(C)(C)C)cc1", "note": "[Compound F, 2,2-Dimethyl-propyl Anisate]", "values": [
      {"measurement": "Rat's Paw Test Carrageenin Edema Inhibition", "setting": "[1]", "value": 30, "unit": "%"},
      {"measurement": "UV Edema in Hairless Mouse Inhibition After 30 hrs", "setting": "[2]", "value": 35, "unit": "%"},
      {"measurement": "Orientating Toxicity", "setting": "[3]", "value": "22 1.0 gm/kg"},
      {"measurement": "Rat's Paw Test Dextran Edema Inhibition", "setting": "Dextran edema, rat's paw", "value": 15, "unit": "%"},
      {"measurement": "UV Erythema in Guinea Pig Inhibition", "setting": "[4]", "value": 48, "unit": "%"}
    ]},
    {"compound": "COc1ccc(C(=O)OCc2ccccc2)cc1", "note": "[Compound G, Benzyl Anisate]", "values": [
      {"measurement": "Rat's Paw Test Carrageenin Edema Inhibition", "setting": "[1]", "value": 19, "unit": "%"},
      {"measurement": "UV Edema in Hairless Mouse Inhibition After 30 hrs", "setting": "[2]", "value": 31, "unit": "%"},
      {"measurement": "LD50", "setting": "[3]", "value": "> 1000", "unit": "mg/kg"},
      {"measurement": "Rat's Paw Test Dextran Edema Inhibition", "setting": "Dextran edema, rat's paw", "value": 5, "unit": "%"},
      {"measurement": "UV Erythema in Guinea Pig Inhibition", "setting": "[4]", "value": 46, "unit": "%"}
    ]}
  ]
}
